In publication PMC6196238, “Novobiocin, a Newly Found TRPV1 Inhibitor, Attenuates the Expression of TRPV1 in Rat Intestine and Intestinal Epithelial Cell Line IEC-6” (Frontiers in Pharmacology, 2018):

Tests used:
TRPV1 = TRPV1 mRNA and protein expression in rat intestine after oral administration (qRT-PCR, western blot); type: in vivo
Method: Forty male SD rats (200–250 g) were used for orally administered experiment. The animals were arbitrarily distributed in eight different groups and each group was treated with its respective dose of calculated amount. Group I was orally administered 0.9% normal saline (5 mL⋅kg^-1). Group II labeled as positive control was orally administered with 10 μM RR (5 mL⋅kg^-1). Rats of Group […] were treated with 5 mL⋅kg^-1 of NOVO dissolved in 0.9% normal saline (5, 10, 25, and 50 μM, respectively). The animals were orally administered twice a day for 2 weeks. After another 14 days, animals were sacrificed and then the jejunum, ileum and colon tissue were excised. The intestinal tissues were frozen in liquid nitrogen, and then stored at -80°C for protein or ribonucleic acid (RNA) isolation.
qRT-PCR was performed to evaluate TRPV1 mRNA expression after NOVO treatment. The total RNA of the cells or tissues was isolated with an RNA isolation plus kit (Takara Shuzo, Kyoto, Japan), according to the manufacturer’s protocol. The quality of RNA was confirmed by agarose gel electrophoresis and an optical density measurement of A260/A280. The cDNAs were prepared using SYBR® Premix Ex Taq^TMII (Takara Shuzo, Kyoto, Japan) and the following primers: 5′-[…]-3′ and 5′-[…]-3′ for TRPV1, and 5′-[…]-3′, 5′-[…]-3′ for GAPDH were carried out by using the LightCycler480 System. The relative expression was calculated by the 2^-ΔΔC(t) method ([Livak and Schmittgen, 2001]).
After treatment, the cells or tissues were collected and washed with PBS. Membrane protein extracts were obtained with Membrane Protein Extraction Kit (Thermo Fisher Scientific Inc, United States), according to the manufacturer’s protocol. Protein concentrations were quantified by using the BCA Protein Assay kit (Beyotime, Shanghai, China). Equal amounts of protein were resolved by SDS-PAGE on a 10% polyacrylamide gel and transferred onto a polyvinylidene fluoride membrane. […]

IEC-6/TRPV1- cells = experiment: MTT cell viability assay
Method: (§1) The rat intestinal epithelial cell line IEC-6, purchased from Kunming Institute of Zoology. CAS, was cultured in Dulbecco’s Modified Eagle’s Medium (DMEM) (Gibco, Grand Island, NY, United States) supplemented with 10% fetal bovine serum (FBS; Gibco) at 37°C in a humidified atmosphere of 5% CO2.
(§2) The plasmid pENTER containing the TRPV1 coding sequence NM_080704 was used as template in a PCR with the following primers: 5′-[…]-3′ (forward) and 5′-[…] (reverse). And synthetic small interfering RNA (siRNA) specific for rat TRPV1 (TRPV1-siRNA) was purchased from Vigene Bioscience (Rockville, MD, United States) with the following sequences: 5′-[…]-3′ (forward) and 5′-[…]-3′ (reverse) for TRPV1-siRNA. The transfecting process was conducted by using the lipofectamin® 3000 transfection reagent (Invitrogen^TM, Carlsbad, CA, United States), according to the manufacturer’s protocol.
(§3) The transfected cells were plated in 96-well plates. […] Optical density at 490 nm was used to evaluate cell viability in 96-well plates.

IEC-6/TRPV1+ cells = experiment: MTT cell viability assay; settings: for Cell Survival: IEC-6/TRPV1+
Method: as §1, §2, §3

[1] = system: rat intestine (jejunum, ileum, colon); experiment: Ussing chamber intestinal permeability of NOVO; type: in vitro ADME; settings: jejunum vs ileum and colon; Figure 1
Method: The intestinal permeability of CAP in vitro was performed using Ussing chamber. […] NOVO was also prepared in HEPES buffer to yield final concentration at 5, 10, 25, 50, 100, and 200 μM. Animal intestinal segments for the permeability study were prepared in accordance with the experimental method as described previously ([Yodoya et al., 1994]; [Wallon et al., 2005]; [Duan et al., 2013]). Briefly, male SD rats, weighting 240–260 g, were fasted for 18 h before each experiment and anesthetized by injecting 10 % chloral hydrate anesthesia (i.p.). Different portions of the rat intestine were excised and flushed with HEPES buffer, including jejunum (after the first 5 cm of the top of small intestine), ileum (the distal part of small intestine) and colon (proximal to cecal-colonic junction), and incubated in the ice-cold HEPES buffer. Next, 3–4 cm of the intestine was clipped, and the serosa was removed rapidly on an ice-cold glass. The intestinal segments were fixed in the Ussing chamber. Finally, 7 mL of HEPES buffer was added to the receiving side while an equal volume of drug solution to the dosing side. All the chambers were maintained at 37°C by using a warm water-circulating pump and a mixture of 95% O2 and 5% CO2 aerated to ensure the activity of the membrane. […]

CO[C@@H]1[C@@H](OC(N)=O)[C@@H](O)[C@H](Oc2ccc3c(O)c(NC(=O)c4ccc(O)c(CC=C(C)C)c4)c(=O)oc3c2C)OC1(C)C [NOVO, novobiocin]
TRPV1 protein expression in rat intestine (TRPV1; 5 μM NOVO p.o., western blot): not sufficient to attenuate TRPV1 protein expression | TRPV1 mRNA level in rat intestine (TRPV1; 14 days p.o. NOVO 5-50 μM twice per day, jejunum, ileum, colon, Figure 2D): decreased markedly | TRPV1 protein level in rat intestine (TRPV1; 14 days p.o. NOVO twice per day, western blot, Figure 2E): decreased the TRPV1 protein level in a dose-dependent manner | Cell Survival (IEC-6/TRPV1- cells; 1.25 μM, incubation 12 h): 1.261 ± 0.512 | Cell Survival (IEC-6/TRPV1- cells; 1.25 μM, incubation 24 h): 1.192 ± 0.099 | Cell Survival (IEC-6/TRPV1- cells; 2.5 μM, incubation 12 h): 1.063 ± 0.361 | Cell Survival (IEC-6/TRPV1- cells; 2.5 μM, incubation 24 h): 1.113 ± 0.177 | Cell Survival (IEC-6/TRPV1- cells; 5 μM, incubation 12 h): 1.128 ± 0.274 | Cell Survival (IEC-6/TRPV1- cells; 5 μM, incubation 24 h): 0.952 ± 0.134 | Cell Survival (IEC-6/TRPV1- cells; 10 μM, incubation 12 h): 1.101 ± 0.101 | Cell Survival (IEC-6/TRPV1- cells; 10 μM, incubation 24 h): 0.861 ± 0.088 | Cell Survival (IEC-6/TRPV1- cells; 20 μM, incubation 12 h): 1.011 ± 0.194 | Cell Survival (IEC-6/TRPV1- cells; 20 μM, incubation 24 h): 0.749 ± 0.138 | Cell Survival (IEC-6/TRPV1- cells; 40 μM, incubation 12 h): 1.051 ± 0.214 | Cell Survival (IEC-6/TRPV1- cells; 40 μM, incubation 24 h): 0.647 ± 0.015 | Cell Survival (IEC-6/TRPV1- cells; 50 μM, incubation 12 h): 1.123 ± 0.293 | Cell Survival (IEC-6/TRPV1- cells; 50 μM, incubation 24 h): 0.591 ± 0.261 | Cell Survival (IEC-6/TRPV1+ cells; 1.25 μM, incubation 12 h): 1.208 ± 0.172 | Cell Survival (IEC-6/TRPV1+ cells; 1.25 μM, incubation 24 h): 1.353 ± 0.192 | Cell Survival (IEC-6/TRPV1+ cells; 2.5 μM, incubation 12 h): 1.139 ± 0.157 | Cell Survival (IEC-6/TRPV1+ cells; 2.5 μM, incubation 24 h): 1.326 ± 0.252 | Cell Survival (IEC-6/TRPV1+ cells; 5 μM, incubation 12 h): 1.118 ± 0.201 | Cell Survival (IEC-6/TRPV1+ cells; 5 μM, incubation 24 h): 1.282 ± 0.203 | Cell Survival (IEC-6/TRPV1+ cells; 10 μM, incubation 12 h): 1.156 ± 0.135 | Cell Survival (IEC-6/TRPV1+ cells; 10 μM, incubation 24 h): 0.954 ± 0.012 | Cell Survival (IEC-6/TRPV1+ cells; 20 μM, incubation 12 h): 1.113 ± 0.102 | Cell Survival (IEC-6/TRPV1+ cells; 20 μM, incubation 24 h): 0.744 ± 0.232 | Cell Survival (IEC-6/TRPV1+ cells; 40 μM, incubation 12 h): 1.018 ± 0.091 | Cell Survival (IEC-6/TRPV1+ cells; 40 μM, incubation 24 h): 0.752 ± 0.291 | Cell Survival (IEC-6/TRPV1+ cells; 50 μM, incubation 12 h): 1.065 ± 0.125 | Cell Survival (IEC-6/TRPV1+ cells; 50 μM, incubation 24 h): 0.668 ± 0.124 | concentration up to which more than 80% of the cells were viable (IEC-6/TRPV1+ cells; both IEC-6/TRPV1+ and IEC-6/TRPV1-, incubated 24 h): 10 µM | permeability of NOVO across intestinal segments [1]: much greater in the jejunum than in the ileum and colon

O=C(Nc1ccccc1Br)N[C@@H]1CCN(c2ccc(C(F)(F)F)cn2)C1 [SB-705498]
Cell Survival (IEC-6/TRPV1- cells; 0.001 μM, incubation 12 h): 1.261 ± 0.268 | Cell Survival (IEC-6/TRPV1- cells; 0.001 μM, incubation 24 h): 0.999 ± 0.082 | Cell Survival (IEC-6/TRPV1- cells; 0.01 μM, incubation 12 h): 1.158 ± 0.144 | Cell Survival (IEC-6/TRPV1- cells; 0.01 μM, incubation 24 h): 0.968 ± 0.218 | Cell Survival (IEC-6/TRPV1- cells; 0.1 μM, incubation 12 h): 1.169 ± 0.333 | Cell Survival (IEC-6/TRPV1- cells; 0.1 μM, incubation 24 h): 0.962 ± 0.184 | Cell Survival (IEC-6/TRPV1- cells; 1 μM, incubation 12 h): 1.001 ± 0.229 | Cell Survival (IEC-6/TRPV1- cells; 1 μM, incubation 24 h): 0.933 ± 0.077 | Cell Survival (IEC-6/TRPV1- cells; 5 μM, incubation 12 h): 0.931 ± 0.296 | Cell Survival (IEC-6/TRPV1- cells; 5 μM, incubation 24 h): 0.907 ± 0.039 | Cell Survival (IEC-6/TRPV1+ cells; 0.001 μM, incubation 12 h): 1.114 ± 0.190 | Cell Survival (IEC-6/TRPV1+ cells; 0.001 μM, incubation 24 h): 1.018 ± 0.061 | Cell Survival (IEC-6/TRPV1+ cells; 0.01 μM, incubation 12 h): 1.101 ± 0.236 | Cell Survival (IEC-6/TRPV1+ cells; 0.01 μM, incubation 24 h): 1.129 ± 0.185 | Cell Survival (IEC-6/TRPV1+ cells; 0.1 μM, incubation 12 h): 1.274 ± 0.223 | Cell Survival (IEC-6/TRPV1+ cells; 0.1 μM, incubation 24 h): 1.118 ± 0.139 | Cell Survival (IEC-6/TRPV1+ cells; 1 μM, incubation 12 h): 1.203 ± 0.139 | Cell Survival (IEC-6/TRPV1+ cells; 1 μM, incubation 24 h): 1.052 ± 0.100 | Cell Survival (IEC-6/TRPV1+ cells; 5 μM, incubation 12 h): 1.276 ± 0.156 | Cell Survival (IEC-6/TRPV1+ cells; 5 μM, incubation 24 h): 0.976 ± 0.098
